Data taken from patent US9193720B2, “Pyridin-3-yl acetic acid derivatives as inhibitors of human immunodeficiency virus replication” (priority 2014, dated 2015).

test system: NL-RLuc virus; test: Inhibition of HIV Replication (NL-RLuc luciferase reporter virus in MT-2 cells); type: cell-based; settings: Human immunodeficiency virus 1, MT2, 120 h
Method in brief: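 Replication-competent virus with Renilla luciferase in place of part of nef, made in 293T cells and titered in MT-2 cells. Infected MT-2 cells grown 5 days with serially diluted compound in RPMI 1640/10% FBS, 10 mM HEPES pH 7.55. Luciferase read-out; EC50 from median effect equation, at least 2 experiments.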

Going from `Cc1nc(C)c([C@H](OC(C)(C)C)C(=O)O)c(N2CCC(c3nc(C(C)C)no3)CC2)c1-c1ccc(OCCc2ccc(F)cc2)cc1` [Example 73, (S)-2-(tert-butoxy)-2-(5-(4-(4-fluorophenethoxy)phenyl)-4-(4-(3-isopropyl-1,2,4-oxadiazol-5-yl)piperidin-1-yl)-2,6-dimethylpyridin-3-yl)acetic acid] to `Cc1nc(C)c([C@H](OC(C)(C)C)C(=O)O)c(N2CCC(C)CC2)c1-c1ccc(OCCc2ccc(F)cc2)cc1` [Example 76, (S)-2-(tert-butoxy)-2-(5-(4-(4-fluorophenethoxy)phenyl)-2,6-dimethyl-4-(4-methylpiperidin-1-yl)pyridin-3-yl)acetic acid], the EC50 falls from 1030 nM to 17 nM (61-fold). The second is the more potent here.

Compared with `Cc1nc(C)c([C@H](OC(C)(C)C)C(=O)O)c(N2CCC(C(F)(F)F)CC2)c1-c1ccc(OCCc2ccc(F)cc2)cc1` [Example 74, (S)-2-(tert-butoxy)-2-(5-(4-(4-fluorophenethoxy)phenyl)-2,6-dimethyl-4-(4-(trifluoromethyl)piperidin-1-yl)pyridin-3-yl)acetic acid], `Cc1nc(C)c([C@H](OC(C)(C)C)C(=O)O)c(N2CCC(C)(F)CC2)c1-c1ccc(OCCc2ccc(F)cc2)cc1` [Example 81, (S)-2-(tert-butoxy)-2-(4-(4-fluoro-4-methylpiperidin-1-yl)-5-(4-(4-fluorophenethoxy)phenyl)-2,6-dimethylpyridin-3-yl)acetic acid] is 95-fold lower in EC50: 379 nM for the first, 4 nM for the second. The second is the more potent here.

Compared with `CCC1(C)CCN(c2c(-c3ccc(OCCc4ccc(F)cc4)cc3)c(C)nc(C)c2[C@H](OC(C)(C)C)C(=O)O)CC1` [Example 75, (S)-2-(tert-butoxy)-2-(4-(4-ethyl-4-methylpiperidin-1-yl)-5-(4-(4-fluorophenethoxy)phenyl)-2,6-dimethylpyridin-3-yl)acetic acid], `COC1(C)CCN(c2c(-c3ccc(OCCc4ccc(F)cc4)cc3)c(C)nc(C)c2[C@H](OC(C)(C)C)C(=O)O)CC1` [Example 77, (S)-2-(tert-butoxy)-2-(5-(4-(4-fluorophenethoxy)phenyl)-4-(4-methoxy-4-methylpiperidin-1-yl)-2,6-dimethylpyridin-3-yl)acetic acid] is 2-fold lower in EC50: 4 nM for the first, 2 nM for the second. The second is the more potent here.

Going from `Cc1nc(C)c([C@H](OC(C)(C)C)C(=O)O)c(N2CCC(C)(C#N)CC2)c1-c1ccc(OCCc2ccc(F)cc2)cc1` [Example 78, (S)-2-(tert-butoxy)-2-(4-(4-cyano-4-methylpiperidin-1-yl)-5-(4-(4-fluorophenethoxy)phenyl)-2,6-dimethylpyridin-3-yl)acetic acid] to `CC(C)=C1CCN(c2c(-c3ccc(OCCc4ccc(F)cc4)cc3)c(C)nc(C)c2[C@H](OC(C)(C)C)C(=O)O)CC1` [Example 79, (S)-2-(tert-butoxy)-2-(5-(4-(4-fluorophenethoxy)phenyl)-2,6-dimethyl-4-(4-(propan-2-ylidene)piperidin-1-yl)pyridin-3-yl)acetic acid], the EC50 rises from 4 nM to 291 nM (73-fold).

First: Cc1nc(C)c([C@H](OC(C)(C)C)C(=O)O)c(N2CCC(Cc3ccccc3)CC2)c1-c1ccc(OCCc2ccc(F)cc2)cc1 [Example 80, (S)-2-(4-(4-benzylpiperidin-1-yl)-5-(4-(4-fluorophenethoxy)phenyl)-2,6-dimethylpyridin-3-yl)-2-(tert-butoxy)acetic acid]
Second: Cc1nc(C)c([C@H](OC(C)(C)C)C(=O)O)c(N2CC(C)CC(C)C2)c1-c1ccc(OCCc2ccc(F)cc2)cc1 (stereo partly shown) [Example 82]
The EC50 of the first is 3.1-fold lower: 1770 nM for the first, 5430 nM for the second.
